What was measured:
Type in all cases: in vivo
Aedes aegypti [1] = assay: Double (dual) chamber assay, spatial repellence; details: after 30 min of injection
Method: FIG. 1: Percentage of mosquitoes Aedes aegypti escaping over time the chamber treated with a stimulus. The four stimuli were the solvent propan-1,2-diol (grey triangles and dotted line), N,N-diethyl-meta-toluamide (medium grey diamonds), 2,6-dimethoxy-4-methylphenol (light gray squares) and 1,2,3-trimethoxy-5-propylbenzene (black circles). Each stimulus was injected during 40 min thanks to a forced evaporation system in the treated chamber containing the mosquitoes, causing their movement toward the untreated refuge chamber. Each point represents the mean number of mosquitoes in the untreated chamber (n=57, 6, 4 and 4 respectively)±SD at 10 min intervals.
The goal of this assay was to reproduce at a smaller scale the validation test for spatial repellent as described in WHO (2013; ISBN 978 92 4 150502 4).
The assay consists of a transparent cage (1200×755×700 mm; ˜0.63 m^3) covered by white paper. This cage is divided in two chambers of equal dimensions by a plasticized paper wall with square opening (200×200 mm) situated in the middle of the wall. At the beginning of the experiment, about 40 two-weeks old female Aedes aegypti mosquitoes are placed in the right chambers. Once the mosquitoes are settled inside this chamber (>5 min), the door between the chambers is opened. Then the stimulus is introduced into the mosquito chamber through a L-shape Teflon tube (40 mm) placed in the middle of the right Plexiglas wall. The stimulus is dispensed thanks to a Forced Evaporation System (Chappuis et al, 2015, DOI: 10.1021/acs.est.5b00692) at a rate of 0.1 mL/min in a nitrogen flow of 1 L/min, blended in a humid air flow of 9L/min before being carried to the L-shape Teflon tube. An air sucking system (˜150 L/min) is placed above the wall opening, between the two chambers (100 mm Ø), preventing the untreated chamber from being contaminated by the stimulus and limiting the stimulus accumulation in the treated chamber. […] Ten, 20, 30 and 40 minutes after the start of the stimulus injection, the number of mosquitoes that have moved to the untreated chamber is manually counted.

Anopheles gambiae = assay: Warm Body assay, mosquito landings on treated warm body
Outline: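 Compounds in ethanol, 100 μL at various concentrations, applied to a sandblasted glass dish (28.3 cm^2) covering a warm body simulating a host. Mosquito landings counted per stimulus against an ethanol-only control to gauge repellence.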

Aedes aegypti [2] = assay: Free flying room assay, spatial repellence with human volunteer
From the text: The goal of this large-scale test is to assess the propensity of stimulus released in the air to protect a human volunteer by limiting the mosquito presence in a protected space and the number of landing/biting. The protocol used to carry the test is following the guidelines indicated in WHO (2013; ISBN 978 92 4 150502 4).
A group of 50 Aedes aegypti female mosquitoes were introduced in one chamber of 25 m^3 one hour before the test started. The product was applied in the other chamber of 25 m^3 (“treated chamber”) and let evaporate for 30 minutes. The test started when the window separating the two chambers was opened in a tilt-on manner for another 30 minutes. Twenty minutes after the window was opened, a volunteer entered in the “treated chamber” and sat down for 10 minutes, exposing the forearm for the last 3 minutes to determine the probing activity (Protective Efficacy). Then, the connecting window was closed and the number of mosquitoes in each of the chambers was counted (Spatial Repellency). The negative controls were carried out following the same procedure but without the application of the stimulus. Three replicates of each treatment and of the negative control were conducted with three different volunteers.

Aedes aegypti [3] = assay: Warm Body assay, mosquito landings on treated warm body; details: Aedes aegypti, read-out: Percentage of repellence of mosquitoes Aedes aegypti landing on the warm body
Outline: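 Compounds in ethanol (100 μL, various concentrations) were applied to a sandblasted glass dish covering the warm body (28.3 cm^2), with ethanol as control. Landings were counted automatically from 30 non-blood-fed, sugar-fed Aedes aegypti Rockefeller females aged 5–10 days, under 150 lux.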

With `CCCc1cc(OC)c(OC)c(OC)c1` [compound 1975, 1,2,3-trimethoxy-5-propylbenzene] the “plateau of mosquitoes moved to the untreated chamber” value (Aedes aegypti [1]) was ~54%, the pest or weed control at 3.2 µg/mL (Anopheles gambiae; Anopheles gambiae, 0.0032 mg/mL (Table 5), read-out: Percentage of repellence of mosquitoes Anopheles gambiae landing on the warm body) was 0% and the pest or weed control at 7.1 µg/mL (Anopheles gambiae; Anopheles gambiae, 0.0071 mg/mL (Table 5), read-out: Percentage of repellence of mosquitoes Anopheles gambiae landing on the warm body) was 5%. For the same compound, the pest or weed control at 16 µg/mL (Anopheles gambiae; Anopheles gambiae, 0.016 mg/mL (Table 5), read-out: Percentage of repellence of mosquitoes Anopheles gambiae landing on the warm body) was 78%, the pest or weed control at 53 µg/mL (Anopheles gambiae; Anopheles gambiae, 0.053 mg/mL (Table 5), read-out: Percentage of repellence of mosquitoes Anopheles gambiae landing on the warm body) was 23% and the pest or weed control at 80 µg/mL (Anopheles gambiae; Anopheles gambiae, 0.08 mg/mL (Table 5), read-out: Percentage of repellence of mosquitoes Anopheles gambiae landing on the warm body) was 0%. The pest or weed control at 400 µg/mL (Anopheles gambiae; Anopheles gambiae, 0.4 mg/mL (Table 5), read-out: Percentage of repellence of mosquitoes Anopheles gambiae landing on the warm body) was 94%, the pest or weed control at 2000 µg/mL (Anopheles gambiae; Anopheles gambiae, 2 mg/mL (Table 5), read-out: Percentage of repellence of mosquitoes Anopheles gambiae landing on the warm body) was 95% and the pest or weed control at 4470 µg/mL (Anopheles gambiae; Anopheles gambiae, 4.47 mg/mL (Table 5), read-out: Percentage of repellence of mosquitoes Anopheles gambiae landing on the warm body) was 100%. The pest or weed control at 10000 µg/mL (Anopheles gambiae; Anopheles gambiae, 10 mg/mL (Table 5), read-out: Percentage of repellence of mosquitoes Anopheles gambiae landing on the warm body) was 98%, the repulsion (Anopheles gambiae; all doses ≥0.04% applied on the Warm Body (Table 5)) was > 90% and the “mosquitoes landed on the volunteer” value (Aedes aegypti [2]; in 3 minutes, negative control 60.7±2.5 landings) was 15.7±3.1. The “Spatial Repellence” value (Aedes aegypti [2]; large scale assay, 25 m3 chambers, compound released in the air) was 43.9 ± 9.1%, the Protective efficacy (Aedes aegypti [2]; large scale assay, probing on volunteer forearm, 3 minutes) was 74.2 ± 4.4% and the “mosquito entered the treated chamber” value (Aedes aegypti [2]; negative control 82.5±3.7%) was 46.3±7.5%. The pest or weed control at 3.2 µg/mL (Aedes aegypti [3]; 0.0032 mg/mL (Table 1)) was 33%, the pest or weed control at 7.1 µg/mL (Aedes aegypti [3]; 0.0071 mg/mL (Table 1)) was 10% and the pest or weed control at 16 µg/mL (Aedes aegypti [3]; 0.016 mg/mL (Table 1)) was 0%. It also gave a pest or weed control at 35.7 µg/mL (Aedes aegypti [3]; 0.0357 mg/mL (Table 1)) of 66%, a pest or weed control at 53 µg/mL (Aedes aegypti [3]; 0.053 mg/mL (Table 1)) of 30% and a pest or weed control at 80 µg/mL (Aedes aegypti [3]; 0.08 mg/mL (Table 1)) of 93%. It also gave a pest or weed control at 119 µg/mL (Aedes aegypti [3]; 0.119 mg/mL (Table 1)) of 36%, a pest or weed control at 178 µg/mL (Aedes aegypti [3]; 0.178 mg/mL (Table 1)) of 83% and a pest or weed control at 267 µg/mL (Aedes aegypti [3]; 0.267 mg/mL (Table 1)) of 87%. The pest or weed control at 400 µg/mL (Aedes aegypti [3]; 0.4 mg/mL (Table 1)) was 94%, the pest or weed control at 598 µg/mL (Aedes aegypti [3]; 0.598 mg/mL (Table 1)) was 99% and the pest or weed control at 890 µg/mL (Aedes aegypti [3]; 0.89 mg/mL (Table 1)) was 95%. It also gave a pest or weed control at 2000 µg/mL (Aedes aegypti [3]; 2 mg/mL (Table 1)) of 96%, a pest or weed control at 4470 µg/mL (Aedes aegypti [3]; 4.47 mg/mL (Table 1)) of 98% and a pest or weed control at 10000 µg/mL (Aedes aegypti [3]; 10 mg/mL (Table 1)) of 96%.

Source: patent publication US20250113823A1, “Arthropod Control Compositions” (priority 2022, published 2025)
